The target of the experiment is T1, human SCD1 (Homo sapiens, UniProt O00767).
T1 construct: made in house; host or cells: baculovirus/Sf9 insect cells
T1 sequence (O00767 1-359): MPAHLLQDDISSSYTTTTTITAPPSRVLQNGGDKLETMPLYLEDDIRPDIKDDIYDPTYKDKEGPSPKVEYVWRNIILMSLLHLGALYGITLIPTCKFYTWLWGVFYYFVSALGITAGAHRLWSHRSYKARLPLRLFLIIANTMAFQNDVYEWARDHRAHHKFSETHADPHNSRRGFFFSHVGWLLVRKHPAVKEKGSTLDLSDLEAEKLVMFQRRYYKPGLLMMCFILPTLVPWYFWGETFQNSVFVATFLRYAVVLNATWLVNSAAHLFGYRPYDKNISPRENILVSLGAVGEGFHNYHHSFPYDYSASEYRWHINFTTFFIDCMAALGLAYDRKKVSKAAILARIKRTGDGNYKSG
In words: SCD enzyme activity assay, reconstituted human SCD1 ([3H]-stearoyl-CoA conversion). It counts as biochemical. The settings on record: read-out: IC50 hSCD-1. As for the experimental part: The potency of compounds of formula I against the stearoyl-CoA desaturase was determined by measuring the conversion of radiolabeled stearoyl-CoA to oleoyl-CoA using rat liver microsome or human SCD1 following previously published procedures with some modifications (Joshi, et al., J. Lipid Res., 18: 32-36 (1977); Talamo, et al., Anal. Biochem, 29: 300-304 (1969)). Liver microsome was prepared from male Wistar or Sprague Dawley rats on a high carbohydrate diet for 3 days (LabDiet #5803, Purina). The livers were homogenized (1:10 w/v) in a buffer containing 250 mM sucrose, 1 mM EDTA, 5 mM DTT and 50 mM Tris-HCl (pH 7.5). After a 100,000×g centrifugation for 60 min, the liver microsome pellet was suspended in a buffer containing 100 mM sodium phosphate, 20% glycerol, 2 mM DTT, and stored at −78° C. Human SCD1 desaturase system was reconstituted using human SCD1 from a baculovirus/Sf9 expression system, cytochrome B5 and cytochrome B5 reductase. Typically, test compound in 2 μL DMSO was incubated for 15 min at room temperature with 180 μL of the SCD enzyme in a buffer containing 100 mM Tris-HCl (pH 7.5), ATP (5 mM), Coenzyme-A (0.1 mM), Triton X-100 (0.5 mM) and NADH (2 mM). The reaction was initiated by the addition of 20 μL of [^3H]-stearoyl-CoA (final concentration=2 μM, radioactivity concentration=1 μCi/mL). After 10 min, the reaction mixture (80 μL) was mixed with a calcium chloride/charcoal aqueous suspension (100 μL charcoal (10% w/v) plus 25 μL CaCl2 (2N). After centrifugation to precipitate the radioactive fatty acid species, tritiated water released from 9,10-[^3H]-stearoyl-CoA by the SCD enzyme was quantified on a scintillation counter.

As a reminder, the IC50 is the point on the concentration scale where inhibition reaches its midpoint.

Regarding `O=C(O)c1ccc2nc(-c3cn(Cc4cc(Br)c(Br)c(Br)c4)nn3)sc2c1`, the IC50 was determined as 14 nM. With `OCc1ccn2cc(-c3cn(Cc4cc(Cl)c(Cl)c(Cl)c4)nn3)nc2c1` the figure was 39 nM. As for `O=C(O)CNc1nc2cnc(-c3cn(Cc4cc(Cl)c(Cl)c(Cl)c4)nn3)nc2s1`, the IC50 stood at 31 nM. For `Oc1cnc2nc(-c3cn(Cc4cc(Cl)c(Cl)c(Cl)c4)nn3)sc2n1` the value was 48 nM. On to `CCOC(=O)Nc1nc2ncc(-c3cn(Cc4cc(Br)c(Br)c(Br)c4)nn3)nc2s1`, for which the IC50 was determined as 16 nM.
